Test results published in article PMC6262321, “New Pim-1 Kinase Inhibitor From the Co-culture of Two Sponge-Associated Actinomycetes” (Frontiers in Chemistry, 2018).
Where two headings read alike, the source gives them in different places.

Tests used:
[1] = target: T1, Pim-1 kinase (Homo sapiens, UniProt P11309); experiment: Pim-1 kinase assay (HTScan Kinase Assay); format: biochemical
T1 construct: purchased Cell Signaling Technology

[2] = test system: human promyelocytic leukemia HL-60; experiment: MTT antiproliferative assay, HL-60; format: cell-based; conditions: mean of 3 independent experiments, read-out: Antiproliferative activity IC50 ± S.D., HL-60 (head prints HL-6)
[3] = test system: human colon adenocarcinoma HT-29; experiment: MTT antiproliferative assay, HT-29; format: cell-based; conditions: mean of 3 independent experiments, read-out: Antiproliferative activity IC50 ± S.D., HT-29
[4] = test system: lung adenocarcinoma H1650; experiment: MTT antiproliferative assay, H1650; format: cell-based; conditions: mean of 3 independent experiments, read-out: Antiproliferative activity IC50 ± S.D., H1650
Description: Cell proliferation was evaluated in cell lines by the MTT assay in triplicates. 10^4 cells were plated in a 96-well microtiter plate in a final volume of 100 μl of culture medium. Cells were treated for 24 h with test compound at 37 °C with 5% CO2. After treatment, the cells were immediately incubated with 10 μl MTT (5.0 mg/mL) for 4 h at 37°C. The cells were then lysed in 100 μl of lysis buffer (isopropanol, conc. HCl and Triton X-100) for 10 min at room temperature and 300 rpm/min shaking. The enzymatic reduction of MTT to formazan crystals that dissolved in DMSO was quantified by photometry at 570 nm. […] 5-Flurouracil was used as a positive control.

[5] = test system: Pim-1; set-up: method as in Nakano et al., 2012; conditions: ligand of PDB code 3umw; ref Nakano et al., 2012; read-out: Pim-1 IC50 of co-crystalized ligand; cited from earlier work
[6] = 50 ng Pim-1, 200 μM ATP, 1.5 μM biotinylated BAD Ser112 peptide, 30 min, mean of 3 independent experiments, read-out: In-vitro Pim-1 kinase inhibitory activity IC50 ± S.D.
[7] = Homo sapiens, HL-60, 24 h treatment
[8] = Homo sapiens, HT-29, 24 h treatment
[9] = Homo sapiens, NCI-H1650, 24 h treatment

T1 sequence (P11309 whole entry): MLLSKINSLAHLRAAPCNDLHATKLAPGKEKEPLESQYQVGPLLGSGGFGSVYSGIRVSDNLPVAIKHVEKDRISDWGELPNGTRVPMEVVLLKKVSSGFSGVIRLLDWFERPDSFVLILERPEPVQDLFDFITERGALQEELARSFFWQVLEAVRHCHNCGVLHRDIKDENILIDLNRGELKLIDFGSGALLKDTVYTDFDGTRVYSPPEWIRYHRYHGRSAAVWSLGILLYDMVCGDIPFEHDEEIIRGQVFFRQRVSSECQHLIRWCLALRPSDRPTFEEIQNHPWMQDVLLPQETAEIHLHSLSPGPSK

SMILES | IC50 [1, 6] [µM] | IC50 [2, 7] [µM] | IC50 [3, 8] [µM] | IC50 [4, 9] [µM] | IC50 [5] [nM] | IC50 ([2]; 24 h treatment) [µM] | IC50 ([3]; 24 h treatment) [µM] | IC50 ([4]; 24 h treatment) [µM] | IC50 [1] [µM]
CC(c1c[nH]c2ccccc12)c1c[nH]c2ccccc12 [Compound 5, vibrindole] | > 20 | > 100 | > 100 | > 100 | – | – | – | – | –
O=C(O)c1cc(O)c2ccccc2c1O [Compound 11, 1,4 dihydroxy-2-naphthoic acid] | > 20 | > 100 | > 100 | > 100 | – | – | – | – | –
O=Cc1c[nH]c2ccccc12 [Compound 6, indole-3-carbaldehyde] | > 20 | > 100 | > 100 | > 100 | – | – | – | – | –
O=C(O)c1ccc2ccccc2c1O [Compound 10, 1-hydroxy-2-naphthoic acid] | > 20 | > 100 | > 100 | > 100 | – | – | – | – | –
COc1ccc2c(c1CN1CCNCC1)OC(=Cc1n[nH]c3ccccc13)C2=O [co-crystalized ligand] | – | – | – | – | 3 | – | – | – | –
O=C1Nc2cc(Br)ccc2[C@@]1(O)c1c[nH]c2ccccc12 [Compound 3, (S) 6-bromo-3-hydroxy-3-(1H-indol-3-yl) indolin-2-one] | – | – | – | > 100 | – | – | – | – | –
O=c1[nH]cc(F)c(=O)[nH]1 [5-Flurouracil, reference compound] | – | – | – | – | – | 0.2 ± 0.43 | 0.3 ± 0.35 | 0.5 ± 0.67 | –
COc1ccc(/C=C/C(=N)/C=C2/C(=O)Nc3cc(Br)ccc32)cc1 [Compound 1, (E)-6-bromo-3-((E)-2-imino-4-(4-methoxyphenyl)but-3-en-1-ylidene)indolin-2-one] | – | – | – | > 100 | – | – | – | – | –
Cc1c[nH]c2ccccc12 [Compound 9, skatole] | > 20 | > 100 | > 100 | > 100 | – | – | – | – | –
OCCc1c[nH]c2ccccc12 [Compound 7, tryptophol] | > 20 | > 100 | > 100 | > 100 | – | – | – | – | –
C[C@@H]1C[C@H]2CC[C@H](O2)[C@H](C)C(=O)O[C@@H](C)C[C@@H]2CC[C@@H](O2)[C@@H](C)C(=O)O[C@H](C)C[C@H]2CC[C@H](O2)[C@H](C)C(=O)O[C@@H](C)C[C@@H]2CC[C@@H](O2)[C@@H](C)C(=O)O1 [Compound 4, Nonactin] | – | > 100 | > 100 | > 100 | – | – | – | – | > 20
O=C(O)C(=O)Cc1c[nH]c2ccccc12 [Compound 8, indole-3-pyruvic acid] | > 20 | > 100 | > 100 | > 100 | – | – | – | – | –
CC(=O)C[C@@]1(O)C(=O)Nc2cc(Br)ccc21 [Compound 2, (S) enantiomer of (R)-6-Bromo-3-hydroxy-3-(2 oxopropyl)indolin-2-one] | > 20 | > 100 | > 100 | > 100 | – | – | – | – | –
